HELM strings list units from the 5' end as sugar, base in round brackets, then linkage (d deoxyribose, r ribose, m 2'-O-methyl, p phosphodiester). Strings are as the collection lists them, not checked against the first reports. ss, as = sense and antisense strand; [lna] = locked nucleic acid (LNA); [fl2r] = 2'-fluoro
Further: test system not given here.

For this series the following is noted: siRNA.
In the case of “RNA1{r(A)p.[fl2r](C)p.r(A)p.[fl2r](U)p.r(A)p.[fl2r](G)p.r(A)p.r(G)p.r(G)p.r(A)p.r(A)p.r(G)p.r(A)p.r(C)p.r(G)p.r(C)p.r(G)p.r(G)p.r(A)p.r(T)p.r(T)}|RNA2{r(U)p.r(C)p.r(C)p.r(G)p.r(C)p.r(G)p.r(U)p.r(C)p.r(U)p.r(U)p.r(C)p.r(C)p.r(U)p.r(C)p.[fl2r](U)p.r(A)p.[fl2r](U)p.r(G)p.r(U)p.r(T)p.r(T)}$$$RNA1{StrandType:ss}|RNA2{StrandType:as}$”, the target mRNA knockdown was 86%.
As for “RNA1{[fl2r](C)p.r(U)p.[fl2r](G)p.r(A)p.[fl2r](C)p.r(C)p.[fl2r](G)p.r(G)p.[fl2r](A)p.r(A)p.[fl2r](G)p.r(C)p.[fl2r](G)p.r(C)p.[fl2r](U)p.r(U)p.[fl2r](A)p.r(A)p.[fl2r](A)p.r(T)p.r(T)}|RNA2{r(U)p.r(U)p.r(U)p.[fl2r](A)p.[fl2r](A)p.r(G)p.r(C)p.r(G)p.r(C)p.r(U)p.r(U)p.r(C)p.r(C)p.r(G)p.r(G)p.r(U)p.r(C)p.[fl2r](A)p.r(G)p.r(T)p.r(T)}$$$RNA1{StrandType:ss}|RNA2{StrandType:as}$”, the figure is 59%; as for “RNA1{r(G)p.r(G)p.r(A)p.r(A)p.m(G)p.r(U)p.r(A)p.r(A)p.r(G)p.r(G)p.r(A)p.r(C)p.r(C)p.r(A)p.r(G)p.r(A)p.r(G)p.r(A)p.r(C)p.r(T)p.r(T)}|RNA2{r(G)p.r(U)p.r(C)p.r(U)p.r(C)p.r(U)p.r(G)p.r(G)p.r(U)p.r(C)p.r(C)p.r(U)p.m(U)p.r(A)p.r(C)p.r(U)p.r(U)p.r(C)p.r(C)p.r(T)p.r(T)}$$$RNA1{StrandType:ss}|RNA2{StrandType:as}$”, 44%; as for “RNA1{m(A)p.r(A)p.m(A)p.r(G)p.m(G)p.r(G)p.m(G)p.r(A)p.m(G)p.r(U)p.m(U)p.r(G)p.m(C)p.r(U)p.m(G)p.r(G)p.m(A)p.r(A)p.m(G)p.r(T)p.r(T)}|RNA2{r(C)p.r(U)p.r(U)p.r(C)p.r(C)p.r(A)p.r(G)p.r(C)p.m(A)p.m(A)p.r(C)p.r(U)p.r(C)p.r(C)p.r(C)p.r(C)p.r(U)p.r(U)p.r(U)p.r(T)p.r(T)}$$$RNA1{StrandType:ss}|RNA2{StrandType:as}$”, 47%.
The figure for “RNA1{r(C)p.r(U)p.r(C)p.r(U)p.r(G)p.r(G)p.r(C)p.r(C)p.r(U)p.r(U)p.r(U)p.r(C)p.r(U)p.r(C)p.r(U)p.r(C)p.m(U)p.r(A)p.r(G)p.r(T)p.r(T)}|RNA2{r(C)p.r(U)p.r(A)p.r(G)p.r(A)p.r(G)p.r(A)p.r(G)p.r(A)p.r(A)p.r(A)p.r(G)p.r(G)p.r(C)p.r(C)p.r(A)p.r(G)p.r(A)p.r(G)p.r(T)p.r(T)}$$$RNA1{StrandType:ss}|RNA2{StrandType:as}$” is 47%.
The figure for “RNA1{r(U)p.r(C)p.r(C)p.r(U)p.r(C)p.r(G)p.r(U)p.r(C)p.[fl2r](G)p.r(U)p.r(C)p.[fl2r](U)p.[fl2r](G)p.r(U)p.r(U)p.r(C)p.[fl2r](U)p.r(A)p.r(A)p.r(T)p.r(T)}|RNA2{r(U)p.[fl2r](U)p.r(A)p.r(G)p.r(A)p.r(A)p.[fl2r](C)p.r(A)p.r(G)p.r(A)p.r(C)p.r(G)p.r(A)p.r(C)p.r(G)p.r(A)p.r(G)p.r(G)p.r(A)p.r(T)p.r(T)}$$$RNA1{StrandType:ss}|RNA2{StrandType:as}$” is 77%.
The substance “RNA1{r(U)p.r(A)p.r(A)p.r(G)p.r(A)p.r(U)p.r(G)p.r(U)p.r(U)p.r(C)p.r(A)p.r(U)p.r(C)p.r(G)p.r(A)p.r(G)p.r(U)p.r(C)p.r(C)p.d(T)p.d(T)}|RNA2{r(G)p.r(G)p.r(A)p.r(C)p.r(U)p.r(C)p.r(G)p.r(A)p.r(U)p.r(G)p.r(A)p.r(A)p.r(C)p.r(A)p.r(U)p.r(C)p.r(U)p.r(U)p.r(A)p.d(T)p.d(T)}$$$RNA1{StrandType:ss}|RNA2{StrandType:as}$” displayed a target mRNA knockdown of 0%.
With “RNA1{r(A)p.r(A)p.r(A)p.r(C)p.r(G)p.r(U)p.r(G)p.r(A)p.r(C)p.r(U)p.r(U)p.m(U)p.r(G)p.r(G)p.r(U)p.r(U)p.r(C)p.r(C)p.r(U)p.r(T)p.r(T)}|RNA2{r(A)p.r(G)p.r(G)p.r(A)p.r(A)p.r(C)p.r(C)p.r(A)p.r(A)p.r(A)p.r(G)p.r(U)p.m(C)p.r(A)p.r(C)p.r(G)p.r(U)p.r(U)p.r(U)p.r(T)p.r(T)}$$$RNA1{StrandType:ss}|RNA2{StrandType:as}$”, the target mRNA knockdown was 83%.
As for “RNA1{[lna](A)p.r(C)p.r(U)p.r(G)p.r(U)p.r(C)p.r(A)p.r(A)p.r(A)p.r(C)p.r(C)p.r(C)p.r(G)p.r(G)p.r(U)p.r(A)p.r(A)p.r(U)p.r(U)p.[lna](T)p.[lna](T)}|RNA2{r(A)p.r(A)p.r(U)p.r(U)p.r(A)p.r(C)p.r(C)p.r(G)p.r(G)p.r(G)p.r(U)p.r(U)p.r(U)p.r(G)p.r(A)p.r(C)p.r(A)p.r(G)p.r(U)p.[lna](T)p.[lna](T)}$$$RNA1{StrandType:ss}|RNA2{StrandType:as}$”, the figure is 52%; as for “RNA1{m(A)p.r(A)p.m(A)p.r(C)p.m(C)p.r(U)p.m(C)p.r(A)p.m(G)p.r(C)p.m(C)p.r(C)p.m(U)p.r(A)p.m(A)p.r(C)p.m(G)p.r(G)p.m(U)p.r(T)p.r(T)}|RNA2{r(A)p.r(C)p.r(C)p.r(G)p.r(U)p.r(U)p.r(A)p.r(G)p.r(G)p.r(G)p.r(C)p.r(U)p.r(G)p.r(A)p.r(G)p.r(G)p.r(U)p.r(U)p.r(U)p.r(T)p.r(T)}$$$RNA1{StrandType:ss}|RNA2{StrandType:as}$”, 51%.
“RNA1{r(C)p.r(G)p.r(G)p.r(A)p.r(U)p.r(C)p.m(U)p.m(A)p.m(C)p.r(A)p.r(C)p.r(C)p.r(U)p.r(U)p.m(C)p.r(A)p.r(A)p.r(G)p.r(A)p.r(T)p.r(T)}|RNA2{r(U)p.r(C)p.r(U)p.m(U)p.r(G)p.r(A)p.r(A)p.r(G)p.r(G)p.m(U)p.r(G)p.m(U)p.r(A)p.r(G)p.r(A)p.r(U)p.r(C)p.r(C)p.r(G)p.r(T)p.r(T)}$$$RNA1{StrandType:ss}|RNA2{StrandType:as}$”: the target mRNA knockdown turned out to be 40%.
As for “RNA1{m(A)p.r(G)p.m(A)p.r(G)p.m(A)p.r(G)p.m(G)p.r(U)p.m(G)p.r(G)p.m(A)p.r(G)p.m(G)p.r(U)p.m(A)p.r(U)p.m(C)p.r(U)p.m(C)p.r(T)p.r(T)}|RNA2{r(G)p.r(A)p.r(G)p.r(A)p.r(U)p.r(A)p.r(C)p.r(C)p.r(U)p.r(C)p.r(C)p.m(A)p.r(C)p.r(C)p.r(U)p.m(C)p.r(U)p.m(C)p.r(U)p.r(T)p.r(T)}$$$RNA1{StrandType:ss}|RNA2{StrandType:as}$”, the figure is 67%; as for “RNA1{r(G)p.m(C)p.r(A)p.r(G)p.r(A)p.r(G)p.r(A)p.r(A)p.r(U)p.r(C)p.m(U)p.r(A)p.r(C)p.r(C)p.r(U)p.r(U)p.r(U)p.r(C)p.r(C)p.r(T)p.r(T)}|RNA2{r(G)p.r(G)p.r(A)p.r(A)p.r(A)p.r(G)p.r(G)p.m(U)p.r(A)p.r(G)p.r(A)p.r(U)p.r(U)p.r(C)p.r(U)p.r(C)p.m(U)p.r(G)p.r(C)p.r(T)p.r(T)}$$$RNA1{StrandType:ss}|RNA2{StrandType:as}$”, 75%; as for “RNA1{r(A)p.r(G)p.r(A)p.r(G)p.r(G)p.r(A)p.r(C)p.r(C)p.m(U)p.r(A)p.r(G)p.r(A)p.r(A)p.r(G)p.r(G)p.r(C)p.r(G)p.r(G)p.r(C)p.r(T)p.r(T)}|RNA2{r(G)p.r(C)p.r(C)p.r(G)p.r(C)p.r(C)p.r(U)p.r(U)p.r(C)p.m(U)p.r(A)p.r(G)p.r(G)p.r(U)p.r(C)p.r(C)p.r(U)p.r(C)p.r(U)p.r(T)p.r(T)}$$$RNA1{StrandType:ss}|RNA2{StrandType:as}$”, 89%.
As to “RNA1{m(U)p.r(U)p.m(A)p.r(A)p.m(G)p.r(G)p.m(A)p.r(G)p.m(A)p.r(A)p.m(G)p.r(C)p.m(U)p.r(G)p.m(A)p.r(C)p.m(G)p.r(G)p.m(C)p.r(T)p.r(T)}|RNA2{r(G)p.r(C)p.r(C)p.r(G)p.r(U)p.r(C)p.r(A)p.r(G)p.r(C)p.r(U)p.r(U)p.r(C)p.r(U)p.r(C)p.r(C)p.r(U)p.r(U)p.r(A)p.r(A)p.r(T)p.r(T)}$$$RNA1{StrandType:ss}|RNA2{StrandType:as}$”, the target mRNA knockdown came out at 24%.
Consider “RNA1{r(U)p.[fl2r](U)p.r(A)p.r(C)p.r(C)p.r(C)p.r(C)p.r(G)p.r(A)p.r(U)p.r(U)p.[fl2r](C)p.r(A)p.r(G)p.r(C)p.r(C)p.r(U)p.r(C)p.r(U)p.r(T)p.r(T)}|RNA2{r(A)p.r(G)p.r(A)p.r(G)p.r(G)p.r(C)p.[fl2r](U)p.r(G)p.r(A)p.r(A)p.r(U)p.r(C)p.r(G)p.r(G)p.r(G)p.r(G)p.[fl2r](U)p.r(A)p.r(A)p.r(T)p.r(T)}$$$RNA1{StrandType:ss}|RNA2{StrandType:as}$”, for which the target mRNA knockdown came out at 82%.
Regarding “RNA1{r(A)p.r(A)p.r(C)p.r(U)p.r(C)p.m(U)p.r(A)p.r(C)p.m(U)p.r(G)p.m(U)p.r(G)p.r(G)p.r(A)p.r(G)p.r(U)p.r(C)p.r(G)p.r(G)p.r(T)p.r(T)}|RNA2{r(C)p.r(C)p.r(G)p.r(A)p.r(C)p.r(U)p.r(C)p.m(C)p.r(A)p.r(C)p.r(A)p.r(G)p.m(U)p.r(A)p.r(G)p.r(A)p.r(G)p.r(U)p.r(U)p.r(T)p.r(T)}$$$RNA1{StrandType:ss}|RNA2{StrandType:as}$”, the target mRNA knockdown worked out at 68%.
As for “RNA1{r(U)p.r(C)p.r(C)p.r(A)p.r(A)p.r(G)p.r(C)p.r(U)p.r(U)p.r(C)p.r(C)p.r(U)p.r(C)p.r(G)p.r(U)p.r(U)p.r(G)p.r(G)p.r(U)p.r(T)p.r(T)}|RNA2{r(A)p.r(C)p.[fl2r](C)p.r(A)p.r(A)p.r(C)p.r(G)p.r(A)p.r(G)p.r(G)p.r(A)p.r(A)p.r(G)p.r(C)p.r(U)p.[fl2r](U)p.r(G)p.r(G)p.r(A)p.r(T)p.r(T)}$$$RNA1{StrandType:ss}|RNA2{StrandType:as}$”, the figure is 71%; as for “RNA1{[fl2r](A)p.r(G)p.[fl2r](A)p.r(G)p.[fl2r](A)p.r(G)p.[fl2r](G)p.r(U)p.[fl2r](G)p.r(G)p.[fl2r](A)p.r(G)p.[fl2r](G)p.r(U)p.[fl2r](A)p.r(U)p.[fl2r](C)p.r(U)p.[fl2r](C)p.r(T)p.r(T)}|RNA2{r(G)p.[fl2r](A)p.r(G)p.[fl2r](A)p.r(U)p.[fl2r](A)p.r(C)p.r(C)p.r(U)p.r(C)p.r(C)p.[fl2r](A)p.r(C)p.r(C)p.r(U)p.r(C)p.r(U)p.r(C)p.r(U)p.r(T)p.r(T)}$$$RNA1{StrandType:ss}|RNA2{StrandType:as}$”, 68%.

The values are drawn from the OligoGym collection.
